Assay results from ChEMBL document CHEMBL5346920, “Development of the "hidden" multi-target-directed ligands by AChE/BuChE for the treatment of Alzheimer's disease” (Eur J Med Chem, 2023).
Calls of active or inactive are those of the source. The rule behind the calls is not given here.

Assays:
Danio rerio [1] = species: Danio rerio; test: Antialzheimer activity against AlCl3-induced Alzheimer's disease zebra fish model assessed as total distance moved at 8 uM treated for 24 hrs and measured after 24 hrs under light environment (reference value: 230 cm); assay type: functional; details: time 48 hrs
Danio rerio [2] = species: Danio rerio; test: Neuroprotective activity against AlCl3-induced Alzheimer's disease zebra fish model assessed as inhibition of AlCl3-induced AChE activity at 8 uM treated for 24 hrs and measured after 24 hrs; assay type: functional, organism-based; details: time 48.0 hrs
[3] = target: Cholinesterase (Equus caballus) (UniProt P81908); test: Reversible inhibition of equine serum BuChE assessed as enzyme activity using butyrylthiocholine chloride as substrate measured after dilution to 0.1XIC50 for 240 mins by Ellman's method; assay type: cell-free; design: scale not given: the % may be the effect or the level left
Danio rerio [4] = species: Danio rerio; test: Antialzheimer activity against AlCl3-induced Alzheimer's disease zebra fish model assessed as total distance moved at 8 uM treated for 24 hrs and measured after 24 hrs under dark environment (reference value: 312 cm); assay type: functional; details: time 48 hrs
Danio rerio [5] = species: Danio rerio; test: Antialzheimer activity against AlCl3-induced Alzheimer's disease zebra fish model assessed as total distance moved at 8 uM treated for 24 hrs and measured after 24 hrs under alternating light dark stimuli conditions (reference value: 543 cm); assay type: functional; details: time 48 hrs
Danio rerio [6] = species: Danio rerio; test: Neuroprotective activity against AlCl3-induced Alzheimer's disease zebra fish model assessed as increase in ACh content at 8 uM treated for 24 hrs and measured after 24 hrs; assay type: functional, organism-based; details: time 48.0 hrs
[7] = Metal chelating activity assessed as compound-Cu2+ complex formation by measuring small fiber aggregates incubated for 24 hrs by transmission electron microscopy
Acetylcholinesterase = Acetylcholinesterase (Electrophorus electricus, UniProt O42275); test: Inhibition of electric eel AChE using acetylthiocholine chloride as substrate by Ellman's method
[8] = (§1) Cytotoxicity against mouse BV-2 cells assessed as cell viability at 30 uM by CCK8 assay; assay type: toxicity, cell-based; details: BV-2 cells, read-out: Activity
PC-12 [9] = test: Neuroprotective activity against Amyloid beta(25 to 35)-induced cell injury in rat PC12 cells assessed as cell viability at 10 uM pretreated for 2 hrs followed by incubation with Abeta(25 to 35) for 24 hrs by CCK-8 assay (reference value: 41 to 58.6%); assay type: functional; details: time 26 hrs, read-out: Activity
[10] = Metal chelating activity assessed as compound-Cu2+ complex formation at stoichiometric ratio of 1:1 at 37.5 uM in presence of CuCl2 by UV-Vis spectrometry
[11] = Stability of the compound in rat plasma assessed as parent compound remaining at 10 ug/ml measured after 3 hrs by UPLC-MS/MS analysis; assay type: ADME, cell-free; details: at 10 µg/mL, read-out: Stability
[12] = target: Amyloid-beta precursor protein (Homo sapiens) (UniProt P05067); test: Inhibition of self-induced Amyloid beta (1 to 42) (unknown origin) aggregation at 25 uM incubated for 24 hrs by thioflavin T-based fluorescence analysis
[13] = target: T1, Amine oxidase [flavin-containing] B (Homo sapiens, UniProt P27338); test: Inhibition of human recombinant MAO-B expressed in baculovirus-infected BTI cells using kynuramine as substrate incubated for 30 mins by fluorescence based analysis
T1 sequence (P27338 whole entry): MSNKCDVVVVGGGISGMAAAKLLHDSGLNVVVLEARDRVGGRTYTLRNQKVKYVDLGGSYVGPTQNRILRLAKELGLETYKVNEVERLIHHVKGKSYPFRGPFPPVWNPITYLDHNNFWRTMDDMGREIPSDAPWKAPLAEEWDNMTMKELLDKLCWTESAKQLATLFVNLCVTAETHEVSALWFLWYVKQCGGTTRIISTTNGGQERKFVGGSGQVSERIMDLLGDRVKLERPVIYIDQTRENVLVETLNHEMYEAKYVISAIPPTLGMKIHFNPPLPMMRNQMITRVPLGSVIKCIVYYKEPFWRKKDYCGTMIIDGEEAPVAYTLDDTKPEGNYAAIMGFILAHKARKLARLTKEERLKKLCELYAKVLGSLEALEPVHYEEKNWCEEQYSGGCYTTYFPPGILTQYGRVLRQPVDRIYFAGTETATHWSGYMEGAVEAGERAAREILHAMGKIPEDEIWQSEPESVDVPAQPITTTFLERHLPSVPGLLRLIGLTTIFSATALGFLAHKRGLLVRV

BV-2 [14] = test: Anti-inflammatory activity against LPS-stimulated mouse BV-2 cells assessed as inhibition of LPS-induced IL-6 production incubated for 24 hrs in presence of LPS; assay type: functional, cell-based; details: dose 1-9 µM
Homo sapiens = species: Homo sapiens; test: Selectivity index, ratio of IC50 for inhibition of human recombinant MAO-A expressed in baculovirus-infected BTI cells to IC50 for inhibition of human recombinant MAO-B expressed in baculovirus-infected BTI cells
[15] = Metal chelating activity assessed as compound-Zn2+ complex formation at 37.5 uM incubated for 30 mins in presence of ZnCl2 by UV-Vis spectrometry
[16] = Metal chelating activity assessed as compound-Cu2+ complex formation by measuring inhibition of Cu2+-induced amyloid beta (1 to 42) aggregation at 25 uM by thioflavin T-based fluorescence analysis
[17] = Stability of the compound in artificial gastric juice assessed as parent compound remaining at 1 mg/ml measured after 8 hrs by UPLC-MS/MS analysis; assay type: ADME; details: read-out: Stability
PC-12 [18] = test: Neuroprotective activity against Amyloid beta(25 to 35)-induced cell injury in rat PC12 cells assessed as cell viability at 5 uM pretreated for 2 hrs followed by incubation with Abeta(25 to 35) for 24 hrs by CCK-8 assay (reference value: 41 to 58.6%); assay type: functional; details: time 26 hrs, read-out: Activity
BV-2 [19] = test: Anti-inflammatory activity against LPS-stimulated mouse BV-2 cells assessed as inhibition of LPS-induced IL-1 beta production incubated for 24 hrs in presence of LPS; assay type: functional, cell-based; details: dose 1-9 µM
[20] = Permeability of the compound at 100 ug/ml incubated for 18 hrs by PAMPA assay; assay type: ADME; details: dose 100 µg/ml, read-out: permeability
[21] = Metal chelating activity assessed as compound-Al3+ complex formation by measuring maximum absorption wavelength shift from 316 to 434 nm at 37.5 uM incubated for 30 mins in presence of AlCl3 by UV-Vis spectrometry
BV-2 [22] = test: Cytotoxicity against mouse BV-2 cells assessed as reduction in cell viability at 10 uM by CCK8 assay; assay type: toxicity, cell-based; details: bv-2, 10 µM
[23] = Stability of the compound in rat liver microsomes assessed as parent compound remaining at 10 ug/ml measured after 60 mins by UPLC-MS/MS analysis; assay type: ADME, Microsome; details: at 10 µg/mL, read-out: Stability
[24] = Metal chelating activity assessed as compound-Fe2+ complex formation at 37.5 uM incubated for 30 mins in presence of FeSO4 by UV-Vis spectrometry
[25] = Stability of the compound in artificial intestinal juice assessed as parent compound remaining at 1 mg/ml measured after 8 hrs by UPLC-MS/MS analysis; assay type: ADME; details: read-out: Stability
[26] = Metal chelating activity assessed as compound-Cu2+ complex formation by measuring maximum absorption wavelength shift from 316 to 446 nm at 37.5 uM incubated for 30 mins in presence of CuCl2 by UV-Vis spectrometry
[27] = Stability of the compound in blank intestinal juice assessed as parent compound remaining at 1 mg/ml measured after 8 hrs by UPLC-MS/MS analysis; assay type: ADME; details: read-out: Stability
[28] = target: Cholinesterase (Equus caballus) (UniProt P81908); test: Inhibition of equine serum BuChE using butyrylthiocholine chloride as substrate at 25 uM by Ellman's method; assay type: cell-free
BV-2 [29] = test: Anti-inflammatory activity against LPS-stimulated mouse BV-2 cells assessed as inhibition of LPS-induced NO production incubated for 24 hrs in presence of LPS; assay type: functional, cell-based; details: dose 1-9 µM
[30] = Stability of the compound in blank gastric juice assessed as parent compound remaining at 1 mg/ml measured after 8 hrs by UPLC-MS/MS analysis; assay type: ADME; details: read-out: Stability
[31] = target: T2, Amine oxidase [flavin-containing] A (Homo sapiens, UniProt P21397); test: Inhibition of human recombinant MAO-A expressed in baculovirus-infected BTI cells using kynuramine as substrate incubated for 30 mins by fluorescence based analysis
T2 sequence (P21397 whole entry): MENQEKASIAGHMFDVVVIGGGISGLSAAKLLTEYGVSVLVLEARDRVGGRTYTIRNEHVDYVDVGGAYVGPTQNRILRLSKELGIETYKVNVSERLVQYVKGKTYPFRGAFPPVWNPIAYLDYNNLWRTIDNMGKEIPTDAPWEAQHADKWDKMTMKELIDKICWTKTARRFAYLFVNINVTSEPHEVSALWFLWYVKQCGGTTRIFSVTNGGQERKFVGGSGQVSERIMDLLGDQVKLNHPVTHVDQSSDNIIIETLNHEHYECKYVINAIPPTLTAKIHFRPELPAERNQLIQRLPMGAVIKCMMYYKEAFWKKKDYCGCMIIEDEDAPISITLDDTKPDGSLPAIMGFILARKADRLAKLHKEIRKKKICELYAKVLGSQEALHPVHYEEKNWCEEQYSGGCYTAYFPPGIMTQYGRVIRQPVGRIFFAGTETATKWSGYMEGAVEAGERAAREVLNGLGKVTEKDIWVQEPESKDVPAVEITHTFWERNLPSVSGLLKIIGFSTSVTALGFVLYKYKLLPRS

PC-12 [32] = test: Neuroprotective activity against Amyloid beta(25 to 35)-induced cell injury in rat PC12 cells assessed as cell viability at 20 uM pretreated for 2 hrs followed by incubation with Abeta(25 to 35) for 24 hrs by CCK-8 assay (reference value: 41 to 58.6%); assay type: functional; details: time 26 hrs, read-out: Activity
PC-12 [33] = test: Cytotoxicity against rat PC-12 cells assessed as cell viability at 40 uM by CCK-8 assay; assay type: toxicity, cell-based; details: pc-12, 40 µM
BV-2 [34] = test: as §1; assay type: toxicity, cell-based; details: bv-2, 30 µM
BV-2 [35] = test: Anti-inflammatory activity against LPS-stimulated mouse BV-2 cells assessed as inhibition of LPS-induced IL-1 beta production by measuring IL-beta level at 3 uM incubated for 24 hrs in presence of LPS (reference value: 221.3 pg/ml); assay type: functional
BV-2 [36] = test: Anti-inflammatory activity against LPS-stimulated mouse BV-2 cells assessed as inhibition of LPS-induced IL-6 production by measuring IL-6 level at 1 uM incubated for 24 hrs in presence of LPS (reference value: 1503.2 pg/ml); assay type: functional
BV-2 [37] = test: Anti-inflammatory activity against LPS-stimulated mouse BV-2 cells assessed as inhibition of LPS-induced IL-6 production by measuring IL-6 level at 9 uM incubated for 24 hrs in presence of LPS (reference value: 1503.2 pg/ml); assay type: functional
BV-2 [38] = test: Anti-inflammatory activity against LPS-stimulated mouse BV-2 cells assessed as inhibition of LPS-induced IL-1 beta production by measuring IL-beta level at 9 uM incubated for 24 hrs in presence of LPS (reference value: 221.3 pg/ml); assay type: functional
BV-2 [39] = test: Anti-inflammatory activity against LPS-stimulated mouse BV-2 cells assessed as inhibition of LPS-induced IL-1 beta production by measuring IL-beta level at 1 uM incubated for 24 hrs in presence of LPS (reference value: 221.3 pg/ml); assay type: functional
BV-2 [40] = test: Anti-inflammatory activity against LPS-stimulated mouse BV-2 cells assessed as inhibition of LPS-induced IL-6 production by measuring IL-6 level at 3 uM incubated for 24 hrs in presence of LPS (reference value: 1503.2 pg/ml); assay type: functional

Sequence of Cholinesterase (Equus caballus) (P81908 whole entry): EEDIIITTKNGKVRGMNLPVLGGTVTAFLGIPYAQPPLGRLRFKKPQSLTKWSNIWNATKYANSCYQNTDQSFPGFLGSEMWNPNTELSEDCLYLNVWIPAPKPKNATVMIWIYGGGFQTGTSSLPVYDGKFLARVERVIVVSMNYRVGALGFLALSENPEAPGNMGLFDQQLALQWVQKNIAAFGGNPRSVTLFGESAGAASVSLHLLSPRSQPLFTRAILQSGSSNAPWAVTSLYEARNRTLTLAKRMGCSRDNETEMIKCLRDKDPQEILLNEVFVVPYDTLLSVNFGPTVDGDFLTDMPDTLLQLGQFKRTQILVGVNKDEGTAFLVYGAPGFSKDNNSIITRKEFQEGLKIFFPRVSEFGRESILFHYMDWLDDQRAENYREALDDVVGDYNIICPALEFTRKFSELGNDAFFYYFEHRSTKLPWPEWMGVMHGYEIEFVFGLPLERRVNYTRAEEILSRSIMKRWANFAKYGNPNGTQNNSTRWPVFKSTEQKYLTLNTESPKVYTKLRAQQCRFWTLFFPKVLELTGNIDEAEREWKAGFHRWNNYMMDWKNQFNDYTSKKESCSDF
Sequence of Acetylcholinesterase (O42275 whole entry): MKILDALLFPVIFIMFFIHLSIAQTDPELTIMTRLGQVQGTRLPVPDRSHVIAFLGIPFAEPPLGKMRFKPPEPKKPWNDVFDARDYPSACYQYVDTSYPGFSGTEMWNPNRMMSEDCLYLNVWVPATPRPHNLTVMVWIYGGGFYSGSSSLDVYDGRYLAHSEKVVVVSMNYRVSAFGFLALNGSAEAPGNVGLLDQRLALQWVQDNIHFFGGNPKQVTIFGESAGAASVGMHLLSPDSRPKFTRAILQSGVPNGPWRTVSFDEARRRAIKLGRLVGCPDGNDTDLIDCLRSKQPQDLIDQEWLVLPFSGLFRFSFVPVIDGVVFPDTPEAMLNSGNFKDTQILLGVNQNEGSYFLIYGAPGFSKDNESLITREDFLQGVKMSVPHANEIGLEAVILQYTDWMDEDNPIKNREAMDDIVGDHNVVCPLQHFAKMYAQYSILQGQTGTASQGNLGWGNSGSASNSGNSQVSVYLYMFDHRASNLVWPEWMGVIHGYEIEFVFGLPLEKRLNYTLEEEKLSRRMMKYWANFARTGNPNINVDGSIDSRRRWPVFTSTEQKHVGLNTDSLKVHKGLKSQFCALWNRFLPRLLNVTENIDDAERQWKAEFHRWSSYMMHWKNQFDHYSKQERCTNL
Sequence of Amyloid-beta precursor protein (Homo sapiens) (P05067 whole entry): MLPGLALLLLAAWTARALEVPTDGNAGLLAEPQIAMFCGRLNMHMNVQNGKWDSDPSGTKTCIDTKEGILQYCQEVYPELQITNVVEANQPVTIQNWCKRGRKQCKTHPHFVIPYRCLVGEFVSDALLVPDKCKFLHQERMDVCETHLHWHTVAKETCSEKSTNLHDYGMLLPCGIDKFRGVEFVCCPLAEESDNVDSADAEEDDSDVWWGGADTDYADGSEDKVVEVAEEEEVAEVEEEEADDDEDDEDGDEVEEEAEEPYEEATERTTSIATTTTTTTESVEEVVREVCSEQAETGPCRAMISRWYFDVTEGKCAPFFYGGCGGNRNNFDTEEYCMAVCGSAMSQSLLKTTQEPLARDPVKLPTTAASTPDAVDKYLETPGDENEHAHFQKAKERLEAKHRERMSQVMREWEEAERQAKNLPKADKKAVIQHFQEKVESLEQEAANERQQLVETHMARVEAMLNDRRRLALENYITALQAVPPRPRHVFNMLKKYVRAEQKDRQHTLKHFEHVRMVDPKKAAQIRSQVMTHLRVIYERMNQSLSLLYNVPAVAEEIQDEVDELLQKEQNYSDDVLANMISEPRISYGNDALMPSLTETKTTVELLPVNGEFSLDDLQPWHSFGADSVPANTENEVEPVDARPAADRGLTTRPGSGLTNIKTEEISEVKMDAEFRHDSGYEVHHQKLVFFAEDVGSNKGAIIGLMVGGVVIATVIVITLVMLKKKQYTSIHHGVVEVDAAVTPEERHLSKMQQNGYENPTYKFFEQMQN

SMILES: COc1cc2c(cc1OC)C(=O)C(CC1CCN(Cc3ccccc3)CC1)C2 (configuration not stated) [DONEPEZIL]
- Activity (Danio rerio [1]): 334 cm
- Activity (Danio rerio [2]): Active
- Activity [3]: 118%
- Activity (Danio rerio [4]): 325 cm
- Activity (Danio rerio [5]): 671 cm
- Activity (Danio rerio [6]): Active

SMILES: O=C(/C=C/c1ccc(F)cc1)c1ccccc1O
- Activity [7]: Active
- IC50 (Acetylcholinesterase): 25.7 µM
- viability at 30 µM [8]: 80.1%
- viability at 10 µM (PC-12 [9]): 89.9%
- Activity [10]: Active
- remaining at 3 h, 10 ug/ml [11]: 101%
- inhibition [12]: 76.9%
- IC50 [13]: 0.67 µM
- Activity (BV-2 [14]): Dose-Dependent Effect
- Ratio IC50 (Homo sapiens): 57.2
- Activity [15]: inactive
- inhibition [16]: 86.5%
- remaining at 8 h, 1 mg/ml [17]: 99%
- viability at 5 µM (PC-12 [18]): 80.6%
- Activity (BV-2 [19]): Dose-Dependent Effect
- Papp at 18 h, 100 ug/ml [20]: 11.5 ×10⁻⁶ cm/s
- Activity [21]: Active
- Activity (BV-2 [22]): Non-Toxic
- remaining at 1 h, 10 ug/ml [23]: 97.2%
- Activity [24]: inactive
- remaining at 8 h, 1 mg/ml [25]: 96.5%
- Activity [26]: Active
- remaining at 8 h, 1 mg/ml [27]: 96%
- inhibition [28]: 10.6%
- Activity (BV-2 [29]): Dose-Dependent Effect
- remaining at 8 h, 1 mg/ml [30]: 97%
- IC50 [31]: 38.3 µM
- viability at 20 µM (PC-12 [32]): 99.1%
- Activity (PC-12 [33]): Non-Toxic

SMILES: CC(C(=O)O)c1ccc(-c2ccccc2)c(F)c1 (configuration not stated) [FLURBIPROFEN]
- Activity (BV-2 [34]): Non-Toxic
- Activity (BV-2 [35]): 149.8 pg/mL
- Activity (BV-2 [36]): 1280.5 pg/mL
- Activity (BV-2 [37]): 808.6 pg/mL
- Activity (BV-2 [38]): 92.9 pg/mL
- Activity (BV-2 [39]): 185.6 pg/mL
- Activity (BV-2 [40]): 1096.7 pg/mL
